According to patent US20120269815A1, “NEUROTROPHINS AND USES THEREOF” (Regents of the University of Minnesota, priority 2008, published 2012):
No end group written: not given here.

Target: T1, p75^NTR (Homo sapiens, UniProt P08138)
T1 construct: host or cells: COS7
T1 sequence (P08138 29-427): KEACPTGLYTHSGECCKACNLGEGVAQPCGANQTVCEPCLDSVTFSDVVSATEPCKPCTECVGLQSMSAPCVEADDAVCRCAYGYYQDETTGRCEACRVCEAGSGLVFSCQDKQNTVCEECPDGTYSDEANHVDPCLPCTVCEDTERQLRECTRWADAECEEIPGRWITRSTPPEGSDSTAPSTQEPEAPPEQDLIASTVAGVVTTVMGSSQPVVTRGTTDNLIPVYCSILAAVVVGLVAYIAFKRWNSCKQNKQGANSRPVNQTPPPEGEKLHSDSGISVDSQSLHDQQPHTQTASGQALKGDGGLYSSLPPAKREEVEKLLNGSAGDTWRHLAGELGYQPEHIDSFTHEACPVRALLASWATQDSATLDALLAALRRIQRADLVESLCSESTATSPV
Assay: Fluorescence-labeled TUF1 peptide binding to COS7 cells expressing p75NTR
Settings: labeled peptide 5 nM, 90 min, COS7 cells transfected with pCMV-SPORT6-p75
Protocol: COS7 cells were seeded at 10,000 cells/well onto a 18 mm coverslip in a 12-well plate. Cells were allowed to settle overnight in a cell culture incubator (NuAire NU-8600, NuAire, Inc., Plymouth, Minn.) set at 37° C. and 5% CO2. Cells were transfected with pCMV-eGFP (Clontech Laboratories, Inc., Mountain View, Calif.) or pCMV-SPORT6-p75 (ATCC) using Fugene HD (Roche Diagnostics Corp., Indianapolis, Ind.) and were incubated overnight. The binding assays were carried out according to Horton et al. with modifications. Synthetic TUF1 peptides (TUF1[43-54] (SEQ ID NO:1) and TUF1[24-40] (SEQ ID NO:3) were generated (via Sigma Genosys, Sigma-Aldrich Co. St. Louis, Mo.) and were conjugated per manufacturer's recommendation with DyLight 549 NHS Ester (Thermo Fisher Scientific, Waltham, Mass.), which have similar spectra to Cy3 dye. Unconjugated dye was removed with a dye removal column (Thermo Fisher Scientific, Waltham, Mass.). Labeled peptides were diluted to 5 nM in 0.15 M Sucrose/PBS and added (1.0 ml/well) to transfected COS7 cells. The binding reaction was incubated in the dark at room temperature for 90 minutes. Cells were rinsed thoroughly with PBS+0.05% Tween-20 to remove unbound peptide. Cells were then fixed with 4% Paraformaldehyde (5 minutes).
Following fixation, cells were permeabilized in PBS+0.1% Tween-20 for 10 minutes, rinsed thoroughly with PBS, and blocked in BSA (10 mg/ml) for 10 minutes. Cells were incubated with rabbit anti-p75^NTR antibody (1:10,000 dilution) for 30 minutes. Excess antibody was removed with PBS washes. Cells were then incubated with Alexa-488 goat anti-rabbit antibody (1:500 dilution, Invitrogen). Cells were again rinsed thoroughly with PBS and mounted in Vectashield mounting media plus DAPI (Vector Laboratories, Inc., Burlingame, Calif.).
COS7 cells were seeded at 10,000 cells/well onto an 18 mm coverslip in a 12-well plate. Cells were allowed to settle overnight in a cell culture incubator (NuAire NU-8600, NuAire, Inc., Plymouth, Minn.) set at 37° C. and 5% CO2. Cells were transfected with pCMV-eGFP (Clontech Laboratories, Inc., Burlingame, Calif.) or pCMV-SPORT6-p75 (ATCC) using Fugene HD (Roche Diagnostics Corp., Indianapolis, Ind.) and were incubated overnight. The binding assays were carried out according to Horton et al. with modifications. Synthetic TUF1 peptides (TUF1[43-54] (SEQ ID NO:1) and TUF1[24-40] (SEQ ID NO:3)) were generated (via Sigma Genosys, Sigma-Aldrich, St. Louis, Mo.) and were conjugated per manufacturer's recommendation with DyLight 549 NHS Ester (Thermo Fisher Scientific Inc., Waltham, Mass.), which have similar spectra to Cy3 dye. Unconjugated dye was removed with a dye removal column (Thermo Fisher Scientific Inc., Waltham, Mass.). Labeled peptides were diluted to 5 nM in 0.15M Sucrose/PBS and added (1.0 ml/well) to transfected COS7 cells. The binding reaction was incubated in the dark at room temperature for 90 min. Cells were rinsed thoroughly with PBS+0.05% Tween-20 to remove unbound peptide. Cells were then fixed with 4% Paraformaldehyde (5 minutes).
Following fixation, cells were permeabilized in PBS+0.1% Tween-20 for 10 minutes, rinsed thoroughly with PBS, and blocked in BSA (10 mg/ml) for 10 minutes. Cells were incubated with rabbit anti-p75^NTR antibody (1:10,000 dilution) for 30 minutes. Excess antibody was removed with PBS washes. Cells were then incubated with Alexa-488-goat anti-rabbit antibody (1:500 dilution, Invitrogen Corp., Carlsbad, Calif.). […]

How did the “binding to p75^NTR” value turn out when AYKSYVRALPLL [TUF1[43-54]] was run?
Its value is “binds more readily to p75 neurotrophic receptor”.

What about the “binding to p75^NTR” value (listed as TUF1^43-54) of the same sequence?
The value was “found to bind the p75^NTR”.

What about the “binding to p75^NTR” value (listed as TUF1 peptide) of the same sequence?
The value was “binds p75 receptor expressed in COS cells”.
